According to patent publication US20150258190A1, “NICOTINAMIDE AS ADJUVANT” (NOVARTIS AG, priority 2012, published 2015):

Tests used:
[1] = cited from earlier work
[2] = cited from earlier work; remark: listed apart in the source
S. aureus = settings: NAM daily beginning 24 hours prior to or 12 hours after infection with S. aureus; cited from earlier work
Sta006 = test: Antibody titre at day 23 by Luminex assay; type: in vivo, mouse; settings: day 23 after first vaccination
Description: (§1) At day 23 after the first vaccination with the S. aureus combination vaccine (i.e. one day prior to the challenge with a lethal dose of S. aureus), the HlaH35L, EsxAB, Sta006 and Sta011 antibody titres for each group of mice described in Example 2 were measured by Luminex assay.

HlaH35L = test: Antibody titre at day 23 by Luminex assay; type: in vivo, mice; settings: day 23 after first vaccination
Description: as §1

EsxAB = test: Antibody titre at day 23 by Luminex assay; type: in vivo, mice; settings: day 23 after first vaccination
Description: as §1

Sta011 = test: Antibody titre at day 23 by Luminex assay; type: in vivo, mice; settings: day 23 after first vaccination
Description: as §1

S. aureus strain Newman = test: Survival of vaccinated or mock-injected mice after challenge with a lethal dose of live S. aureus; type: in vivo, CD1 mice
Description: Four groups of 47 to 48 CD1 mice were treated as follows: CD1 mice were immunized twice via intraperitoneal injection two weeks apart (on day 0 and day 14), and each mouse received 200 μl of (mock-)vaccine. Groups 1 (Alum-Nam) and 2 (Alum) were mock-injected with alum (saline plus 2 mg/ml aluminium-hydroxide), groups 3 (Combo-NAM) and 4 (Combo only) were immunised with the S. aureus combination vaccine of Example 1. Groups 1 (Alum-Nam) and 3 (Combo-NAM) received 250 mg/kg NAM orally one day before and one day after challenge with a lethal dose of live S. aureus.
On day 24 (i.e. 10 days after the second vaccination), the immunised animals of groups 1-4 were challenged by intraperitoneal injection of a bacterial suspension of S. aureus strain Newman (approximately 2 to 5×10^8 CFU). Cultures of S. aureus were centrifuged, washed twice and diluted in PBS before challenge. Survival of the mice was monitored over a 15-day period post infection.
Survival rates were analysed by Mann-Whitney U-test. Mice were daily monitored and euthanized according to humane endpoints, in agreement with Novartis Animal Welfare Policies.

## N[C@H](CCC(=O)N[C@@H](Cc1c[nH]c2ccccc12)C(=O)O)C(=O)O [γ-D-glutamyl-L-tryptophan]
[1]; human, in vivo
  adverse effects on administration to human subjects: without adverse effects
[1]; humans
  clinical effect on oral mucositis: no clinical effect

## Nc1cccc2c1CN(C1CCC(=O)NC1=O)C2=O (centres unmarked) [lenalidomide]
[2]
  oncogenic / teratogenic in humans: potentially teratogenic
  bone marrow toxicity as adverse effect in patients: frequently observed

## Nc1cccc2c1C(=O)N(C1CCC(=O)NC1=O)C2=O (centres unmarked) [pomalidomide]
[2]
  oncogenic / teratogenic in humans: potentially teratogenic
  bone marrow toxicity as adverse effect in patients: frequently observed

## NC(=O)c1cccnc1 [NAM, nicotinamide]
S. aureus
  immune killing of the bacteria: dramatically enhances
Sta006
  Sta006 antibody titre in serum, group 3 (vaccinated, NAM treatment) vs group 4 (vaccinated, no NAM treatment): No significant difference
HlaH35L
  HlaH35L antibody titre in serum, group 3 (vaccinated, NAM treatment) vs group 4 (vaccinated, no NAM treatment): No significant difference
EsxAB
  EsxAB antibody titre in serum, group 3 (vaccinated, NAM treatment) vs group 4 (vaccinated, no NAM treatment): No significant difference
Sta011
  Sta011 antibody titre in serum, group 3 (vaccinated, NAM treatment) vs group 4 (vaccinated, no NAM treatment): No significant difference
[2]; animals and humans
  dose reported to be reversible hepatotoxic: > 3 g/day
[2]; human subjects
  side effects associated with treatment of human subjects: no significant side effects
[2]
  oncogenic / teratogenic in humans: neither oncogenic nor teratogenic
S. aureus strain Newman; CD1 mice, (mock-)vaccine i.p. day 0 and 14, i.p. challenge day 24, NAM 250 mg/kg orally one day before and one day after challenge
  mice that survived until 15 days post infection: 9%
S. aureus strain Newman; mice immunized with S. aureus combination vaccine, NAM 250 mg/kg orally
  mortality in comparison to mice which had received only the vaccine: significantly decreased
S. aureus strain Newman; mice treated with alum alone, NAM 250 mg/kg orally
  protecting mice against a lethal infection with S. aureus: not effective
